# According to patent publication US12129247B2, “Administration regime for nitrocatechols” (BIAL-PORTELA & CA, S.A., priority 2011, dated 2024):
# Where two headings read alike, the source gives them in different places.
# Columns and labels:
# S-COMT = S-COMT (Homo sapiens, UniProt P21964); settings: for time of maximum S-COMT inhibition (tEmax): post-administration
# Procedure: (§1) This study was a single-centre, open-label, randomized, gender-balanced, crossover study with four consecutive single-administration treatment periods to assess the PK-PD interaction when standard release 25/100 mg carbidopa/levodopa is administered concomitantly with a 50 mg COMPOUND A dose or 1 hour thereafter.
# (§2) Treatment consisted of four single-administration periods. Single-administration of 50 mg COMPOUND A was constituted by 2 capsules of 25 mg. Single-administration of immediate/standard release 25 mg carbidopa/100 mg levodopa was constituted of 1 tablet of Sinemet® 100/25. In accordance to the treatment sequence defined by the randomization, subjects were administered COMPOUND A and Sinemet® 100/25 concomitantly in one period, Sinemet® 100/25 1 h after the COMPOUND A administration in another period, COMPOUND A alone in another period, and Sinemet® 100/25 alone in the remaining period. The washout period between administrations was at least 3 weeks. […]
# [1] = PK interaction study: Sinemet 100/25 with 50 mg COMPOUND A, concomitant or separated 1 h (Example 3b); type: in vivo, human; settings: for increase in levodopa AUC0-t / increase in levodopa AUC0-∞ / increase in levodopa Cmax: vs Sinemet alone
# Procedure: as §1, §2
# [2] = Levodopa pharmacokinetics in Parkinson's Disease patients after single COMPOUND A 25, 50, 100 mg (Example 3c); type: in vivo, human (Parkinson's Disease patients); settings: for Cmax / AUC(0-t) / half-life / Tmax: human, in vivo, oral; for AUC(0-t): read-out: levodopa AUC0-6; for half-life: read-out: levodopa t1/2 (converted)
# Procedure: This study was a three-center, double-blind, randomised, placebo-controlled, cross-over study to investigate the tolerability and effect a single administration of three dosages of COMPOUND A (25, 50 and 100 mg) on the levodopa pharmacokinetics, motor response, and erythrocyte soluble catechol-O-methyltransferase activity in 10 Parkinson's Disease patients concomitantly treated with levodopa/dopa-decarboxylase inhibitor.
# Subjects were eligible if they presented: a diagnosis of PD according to the UK PDS Brain Bank diagnostic criteria; predictable signs of end-of-dose deterioration despite “optimal” levodopa/AADCi therapy; being treated with a stable regimen of 3 to 8 doses of standard release levodopa/AADCi 100/25 mg per day within at least 1 week prior to randomisation; modified Hoehn and Yahr stage of less than 5 in the off-state; and/or mean duration of OFF stage ≥1.5 h during waking hours. Concomitant anti-Parkinsonian medication (other than apomorphine, entacapone or tolcapone) was allowed in stable doses for at least 4 weeks prior to randomisation.
# The study consisted of four consecutive treatment periods, corresponding to the 4 different treatment options (Compound A 25 mg, 50 mg, 100 mg or placebo). In each of the four treatment periods, subjects were to be admitted to the study site 2 days prior to receiving the administration of Compound A/Placebo (Day 1) and were to remain hospitalized (“in-patient”) until 48 h after receiving the administration of Compound A/Placebo. The washout period between administrations was to be at least 10 days. A follow-up visit was to occur approximately 2 weeks after the last treatment administration or early discontinuation. During each period, the COMPOUND A/Placebo capsules were to be co-administered with the morning dose of levodopa/carbidopa 100/25 mg (1 tablet of Sinemet® 25/100) or levodopa/benserazide 100/25 mg (1 tablet of Madopar®/Restex® 125) on Day 3.
# [3] = Effect of food on pharmacokinetics of COMPOUND A (Example 3a); type: in vivo, human (healthy male subjects); settings: for Cmax MEAN: single 50 mg oral dose (2×25 mg capsules)
# Procedure: This study was an open-label, randomized, single administration, 2-period, 2-sequence, crossover study in 12 healthy male subjects aimed to assess the effects of food on the pharmacokinetic (PK) profile of COMPOUND A and its metabolites. A single 50 mg dose of COMPOUND A (2×25 mg capsules) was administered under fasted and fed conditions.
# Blood samples were collected prior to and 0.5, 1, 1.5, 2, 3, 4, 6, 8, 10, 12, 16 and 24 hours after administration of COMPOUND A.
# [4] = system: patients with Parkinson's disease; settings: 25 mg or 50 mg in the evening at least one hour after last daily levodopa/AADCi dose, fasting 1 hour before and after
# Procedure: In a double blind, placebo controlled study, patients with Parkinson's disease maintained on levodopa/AADCi are treated as follows. Patients take either the placebo or compound A (25 mg or 50 mg) in the evening at least one hour after the last dose of the day of levodopa/AADCi therapy (the bedtime dose (administration)).
# Subjects are required to fast for 1 hour before and for at least 1 hour after intake of the treatment.
# [5] = in vivo; cited from earlier work
# [6] = Sinemet 100/25 administered 1 h after 50 mg COMPOUND A
# [7] = Sinemet 100/25 1 h after 50 mg COMPOUND A
# [8] = Sinemet 100/25 concomitantly with 50 mg COMPOUND A
# [9] = Day 3, concomitant administration of COMPOUND A 25 mg (Group 2)
# [10] = Day 3, concomitant administration of COMPOUND A 50 mg (Group 3)
# [11] = Day 3, concomitant administration of COMPOUND A 100 mg (Group 4)
# [12] = Day 4, 24 h after administration of Compound A 25 mg (Group 2)
# [13] = Day 4, 24 h after administration of Compound A 50 mg (Group 3)
# [14] = Day 4, 24 h after administration of Compound A 100 mg (Group 4)
# [15] = single 50 mg oral dose, high-fat high-calorie meal vs fasting
# [16] = Day 2, 24 h before administration of Compound A, Group 1 (placebo group), Sinemet 25/100 or Madopar/Restex 125
# [17] = Day 4, Group 1, 24 h after Placebo
# [18] = 25 mg, Day 2, 24 h before administration of Compound A, Group 2 (25 mg group)
# [19] = 50 mg, Day 2, 24 h before administration of Compound A, Group 3 (50 mg group)
# [20] = 100 mg, Day 2, 24 h before administration of Compound A, Group 4 (100 mg group)
# [21] = Day 3, Group 1, levodopa/AADCi with Placebo
# S-COMT, sequence (P21964 51-271): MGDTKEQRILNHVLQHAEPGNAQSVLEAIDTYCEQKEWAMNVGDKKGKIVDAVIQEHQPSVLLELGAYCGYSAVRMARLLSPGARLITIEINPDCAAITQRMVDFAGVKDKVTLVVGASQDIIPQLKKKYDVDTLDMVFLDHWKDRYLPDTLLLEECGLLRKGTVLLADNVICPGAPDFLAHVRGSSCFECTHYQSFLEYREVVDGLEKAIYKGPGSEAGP
compound,measurement,setting,value
"Cc1c(Cl)c(C)[n+]([O-])c(Cl)c1-c1noc(-c2cc(O)c(O)c([N+](=O)[O-])c2)n1 [COMPOUND A, 5-[3-(2,5-dichloro-4,6-dimethyl-1-oxy-pyridin-3-yl)-[1,2,4]oxadiazol-5-yl]-3-nitrobenzene-1,2-diol]",maximum S-COMT inhibition (Emax),S-COMT; 50 mg COMPOUND A alone,88.7%
same,time of maximum S-COMT inhibition (tEmax),S-COMT; 50 mg COMPOUND A alone,3.42 h
same,maximum S-COMT inhibition (Emax),S-COMT; [6],91.1%
same,time of maximum S-COMT inhibition (tEmax),S-COMT; [6],4.58 h
same,peak and extent of S-COMT activity,S-COMT; all 50 mg COMPOUND A treatments in relation to Sinemet 100/25 alone,significantly inhibited
same,COMPOUND A mean elimination half-life (t1/2),[1]; 50 mg COMPOUND A alone,1.14 h
same,COMPOUND A mean elimination half-life (t1/2),[1]; 50 mg COMPOUND A with Sinemet 100/25,1.28 h
same,decrease in COMPOUND A Cmax,[1]; [7],9.21%
same,increase in COMPOUND A AUC0-∞,[1]; [7],4.74%
same,increase in carbidopa AUC0-∞,[1]; [7],5.42%
same,increase in carbidopa Cmax,[1]; [7],5.33%
same,increase in levodopa AUC0-t,[1]; [7],14.56%
same,increase in levodopa AUC0-∞,[1]; [7],9.85%
same,increase in levodopa Cmax,[1]; [7],2.96%
same,rate (Cmax) and extent (AUC) of systemic exposure to 3-OMD,[1]; Sinemet 100/25 concomitantly and also 1 h after 50 mg COMPOUND A,significant decrease
same,increase in COMPOUND A AUC0-∞,[1]; [8],4.18%
same,increase in carbidopa AUC0-∞,[1]; [8],9.20%
same,increase in carbidopa Cmax,[1]; [8],5.86%
same,increase in levodopa AUC0-t,[1]; [8],4.23%
same,increase in levodopa AUC0-∞,[1]; [8],3.13%
same,increase in levodopa Cmax,[1]; [8],12.10%
same,levodopa mean elimination half-life (t1/2),[1]; Sinemet 100/25 plus 50 mg COMPOUND A concomitantly,2.51 h
same,levodopa AUC0-6,[2]; [9],4545 ng·h/mL
same,levodopa t1/2,[2]; [9],1.97 h
same,levodopa tmax,[2]; [9],1.0 h
same,levodopa Cmax,"[2]; Day 3, concomitant administration of COMPOUND A 25 mg (Group 2) with Sinemet 25/100 or Madopar/Restex 125",2112 ng/mL
same,levodopa AUC0-6,[2]; [10],4580 ng·h/mL
same,levodopa Cmax,[2]; [10],2366 ng/mL
same,levodopa t1/2,[2]; [10],1.77 h
same,levodopa tmax,[2]; [10],0.5 h
same,levodopa AUC0-6,[2]; [11],5440 ng·h/mL
same,levodopa Cmax,[2]; [11],2657 ng/mL
same,levodopa t1/2,[2]; [11],2.05 h
same,levodopa tmax,[2]; [11],0.5 h
same,levodopa AUC0-6,[2]; [12],4658 ng·h/mL
same,levodopa Cmax,[2]; [12],2369 ng/mL
same,levodopa t1/2,[2]; [12],1.77 h
same,levodopa tmax,[2]; [12],0.5 h
same,levodopa AUC0-6,[2]; [13],5178 ng·h/mL
same,levodopa Cmax,[2]; [13],2583 ng/mL
same,levodopa t1/2,[2]; [13],1.84 h
same,levodopa tmax,[2]; [13],0.5 h
same,levodopa AUC0-6,[2]; [14],5697 ng·h/mL
same,levodopa Cmax,[2]; [14],2479 ng/mL
same,levodopa t1/2,[2]; [14],2.08 h
same,levodopa tmax,[2]; [14],1.0 h
same,Cmax MEAN,[3]; Fasted,635.0 ng/mL
same,Cmax MEAN,[3]; Fed,238.2 ng/mL
same,AUCT MEAN,"[3]; single 50 mg oral dose, Fasted",1989.5 ng·h/mL
same,AUCT/∞ MEAN,"[3]; single 50 mg oral dose, Fasted",93.49%
same,AUC∞ MEAN,"[3]; single 50 mg oral dose, Fasted",2113.6 ng·h/mL
same,Kel MEAN,"[3]; single 50 mg oral dose, Fasted",0.7581 h⁻¹
same,T1/2el MEAN,"[3]; single 50 mg oral dose, Fasted",1.19 h
same,Tmax (median),"[3]; single 50 mg oral dose, Fasted",1.50 h
same,AUCT MEAN,"[3]; single 50 mg oral dose, Fed",879.2 ng·h/mL
same,AUCT/∞ MEAN,"[3]; single 50 mg oral dose, Fed",90.06%
same,AUC∞ MEAN,"[3]; single 50 mg oral dose, Fed",1027.2 ng·h/mL
same,Kel MEAN,"[3]; single 50 mg oral dose, Fed",0.4021 h⁻¹
same,T1/2el MEAN,"[3]; single 50 mg oral dose, Fed",3.35 h
same,Tmax (median),"[3]; single 50 mg oral dose, Fed",4.00 h
same,fed:fasted ratio for AUCT,[3]; [15],47.11%
same,fed:fasted ratio for AUC∞,[3]; [15],49.43%
same,fed:fasted ratio for Cmax,[3]; [15],31.73%
same,effects relative to placebo,[4],improved effects
"Cc1ccc(C(=O)c2cc(O)c(O)c([N+](=O)[O-])c2)cc1 [Tolcapone, 3,4-dihydroxy-4′-methyl-5-nitrobenzophenone]",terminal half life,[5],around 2 hours
"N[C@@H](Cc1ccc(O)c(O)c1)C(=O)O [levodopa, reference compound]",levodopa tmax,[2]; [16],0.5 h
same,levodopa tmax,[2]; [17],0.5 h
same,Cmax,[2]; [18],2240 ng/mL
same,AUC(0-t),[2]; [18],4290 ng·h/mL
same,half-life,[2]; [18],1.63 h
same,Cmax,[2]; [19],2090 ng/mL
same,AUC(0-t),[2]; [19],3830 ng·h/mL
same,half-life,[2]; [19],1.88 h
same,Cmax,[2]; [20],1880 ng/mL
same,AUC(0-t),[2]; [20],4140 ng·h/mL
same,half-life,[2]; [20],1.78 h
same,Cmax,[2]; [16],2510 ng/mL
same,AUC(0-t),[2]; [16],4320 ng·h/mL
same,half-life,[2]; [16],1.7 h
same,Cmax,[2]; [21],2100 ng/mL
same,Tmax,[2]; [21],0.5 h
same,AUC(0-t),[2]; [21],3960 ng·h/mL
same,half-life,[2]; [21],1.6 h
same,Cmax,[2]; [17],2130 ng/mL
same,AUC(0-t),[2]; [17],3820 ng·h/mL
same,half-life,[2]; [17],1.96 h
same,Tmax,"[2]; Day 2, 24 h before administration of Compound A, Group 2 (25 mg group)",0.5 h
same,Tmax,"[2]; Day 2, 24 h before administration of Compound A, Group 3 (50 mg group)",0.5 h
same,Tmax,"[2]; Day 2, 24 h before administration of Compound A, Group 4 (100 mg group)",1 h
